Legend:
Assay type in all cases: cell-based
[1] = target: EP2 subtype of the human PGE2 receptor (Homo sapiens, UniProt P43116); test: cAMP antagonism test on the human EP2 receptor (HTRF cAMP detection); settings: hEP2 receptor, read-out: Antagonism hEP2 IC50
Summary of the method: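 Read-out is a competitive HTRF for cAMP: lysate cAMP displaces cAMP-d2 from Eu cryptate-labelled antibody, and antagonism raises the 665/620 nm ratio. Compound (0.8 nM–16.5 μM) added to EP2 cells 20 min at RT before 60 min PGE2 challenge (3× stock 1.5 nM) with IBMX, followed by 20 min lysis.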

human PGD receptor = target: T1, human PGD receptor (Homo sapiens, UniProt Q13258); test: cAMP antagonism test on the human prostaglandin D receptor (HTRF cAMP detection); settings: selectivity towards hDP, IC50 measured by cAMP antagonism test
T1 sequence (Q13258 1-359): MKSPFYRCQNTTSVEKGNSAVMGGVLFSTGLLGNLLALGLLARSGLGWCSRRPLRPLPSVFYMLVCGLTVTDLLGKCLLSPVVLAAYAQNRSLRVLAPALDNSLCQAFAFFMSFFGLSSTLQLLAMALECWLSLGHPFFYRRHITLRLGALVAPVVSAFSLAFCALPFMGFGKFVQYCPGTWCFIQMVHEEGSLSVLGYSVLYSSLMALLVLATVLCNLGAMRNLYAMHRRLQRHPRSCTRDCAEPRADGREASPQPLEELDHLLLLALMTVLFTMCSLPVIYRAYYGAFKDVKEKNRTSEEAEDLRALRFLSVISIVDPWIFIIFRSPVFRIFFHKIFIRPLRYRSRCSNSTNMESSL
Summary of the method: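 HTRF competition read-out (665/620 nm ratio ×10000), where higher FRET means less cAMP, i.e. antagonism. Compounds (0.8 nM–16.5 μM) were preincubated 20 min at RT with cells and cAMP-d2, PGD2 (3× solution, 6 nM) in IBMX-containing PBS added for 30 min at RT, then cells lysed 20 min.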

[2] = target: EP4 subtype of the human PGE2 receptor (Homo sapiens, UniProt P35408); test: cAMP antagonism test on the human EP4 receptor (HTRF cAMP detection); settings: selectivity towards hEP4, IC50 measured by cAMP antagonism test
Summary of the method: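 Competitive HTRF cAMP read-out (cAMP-d2 vs Eu-cryptate anti-cAMP antibody, 665/620 nm ratio) on lysed human EP4 cells. Compound (0.8 nM–16.5 μM) applied 20 min at RT before 60 min PGE2 challenge (3× solution 0.3 nM, IBMX present); 20 min lysis precedes reading.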

Chain of EP4 subtype of the human PGE2 receptor (P35408 whole entry): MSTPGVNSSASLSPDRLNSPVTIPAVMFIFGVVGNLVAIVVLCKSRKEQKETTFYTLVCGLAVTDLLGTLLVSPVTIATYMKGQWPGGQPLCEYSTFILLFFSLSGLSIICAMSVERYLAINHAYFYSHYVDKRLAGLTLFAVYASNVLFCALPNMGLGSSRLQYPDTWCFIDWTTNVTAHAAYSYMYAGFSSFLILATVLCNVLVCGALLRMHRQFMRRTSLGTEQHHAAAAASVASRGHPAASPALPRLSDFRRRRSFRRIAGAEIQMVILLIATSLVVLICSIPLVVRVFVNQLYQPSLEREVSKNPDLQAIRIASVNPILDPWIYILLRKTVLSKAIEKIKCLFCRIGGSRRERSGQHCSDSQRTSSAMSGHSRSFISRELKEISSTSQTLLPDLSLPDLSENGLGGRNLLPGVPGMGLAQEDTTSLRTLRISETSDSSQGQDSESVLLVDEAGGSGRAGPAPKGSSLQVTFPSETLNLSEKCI
Chain of EP2 subtype of the human PGE2 receptor (P43116 whole entry): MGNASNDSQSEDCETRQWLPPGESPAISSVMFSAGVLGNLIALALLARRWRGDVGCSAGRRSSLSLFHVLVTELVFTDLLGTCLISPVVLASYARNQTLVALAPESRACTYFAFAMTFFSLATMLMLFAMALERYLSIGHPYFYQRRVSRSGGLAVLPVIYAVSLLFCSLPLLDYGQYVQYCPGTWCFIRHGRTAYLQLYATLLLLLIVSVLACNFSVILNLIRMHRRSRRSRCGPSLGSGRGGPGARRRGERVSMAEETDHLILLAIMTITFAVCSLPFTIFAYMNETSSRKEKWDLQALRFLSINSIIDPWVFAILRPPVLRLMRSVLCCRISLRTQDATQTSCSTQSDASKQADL

| SMILES | IC50 [1] [nM] | Selectivity hEP2/hDP (human PGD receptor) | Selectivity hEP2/hEP4 [2] |
| --- | --- | --- | --- |
| Cc1cc2nn(CC3CN(C(=O)c4ccc(Oc5ccc(C(F)(F)F)cc5)cc4)C3)cc2cc1C(=O)NCC(F)(F)F [Example 201, 6-methyl-N-(2,2,2-trifluoroethyl)-2-[(1-{4-[4-(trifluoromethyl)phenoxy]benzoyl}azetidin-3-yl)methyl]-2H-indazol-5-carboxamide] | 24.9 | xxx (xxx > 100) | xxx (xxx > 100) |
| Cc1cc2nn(CC3CN(C(=O)c4ccc(-c5ccc(F)cc5)cc4)C3)cc2cc1C(=O)NCC(F)(F)F [Example 203, 2-({1-[(4′-fluorobiphenyl-4-yl)carbonyl]azetidin-3-yl}methyl)-6-methyl-N-(2,2,2-trifluoroethyl)-2H-indazol-5-carboxamide] | 85.7 | xxx (xxx > 100) | xxx (xxx > 100) |
| COCCNC(=O)c1cc2cn(CC3CN(C(=O)c4ccc(-c5ccc(F)cc5)cc4)C3)nc2cc1C [Example 204, 2-({1-[(4′-fluorobiphenyl-4-yl)carbonyl]azetidin-3-yl}methyl)-N-(2-methoxy-ethyl)-6-methyl-2H-indazol-5-carboxamide] | 10 | xxx (xxx > 100) | xxx (xxx > 100) |
| COCCNC(=O)c1ccc2nn(CC3CN(C(=O)c4ccc(Cl)cc4)C3)cc2c1OC [Example 214, 2-{[1-(4-chlorobenzoyl)azetidin-3-yl]methyl}-4-methoxy-N-(2-methoxyethyl)-2H-indazol-5-carboxamide] | 64.9 | xxx (xxx > 100) | xxx (xxx > 100) |
| COCCNC(=O)c1ccc2nn(CC3CN(C(=O)c4ccc(SC(F)(F)F)cc4)C3)cc2c1OC [Example 215, 4-methoxy-N-(2-methoxyethyl)-2-[(1-{4-[(trifluoromethyl)sulphanyl]benzoyl}azetidin-3-yl)methyl]-2H-indazol-5-carboxamide] | 39 | xxx (xxx > 100) | xxx (xxx > 100) |
| COCCNC(=O)c1ccc2nn(CC3CN(C(=O)c4ccc(Br)cc4)C3)cc2c1OC [Example 216, 2-{[1-(4-bromobenzoyl)azetidin-3-yl]methyl}-4-methoxy-N-(2-methoxyethyl)-2H-indazol-5-carboxamide] | 86.1 | xxx (xxx > 100) | xxx (xxx > 100) |
| COCCNC(=O)c1ccc2nn(C[C@@H]3CCN(C(=O)c4ccc(Cl)cc4)C3)cc2c1C [Example 217, 2-{[(R)-1-(4-chlorobenzoyl)pyrrolidin-3-yl]methyl}-N-(2-methoxyethyl)-4-methyl-2H-indazol-5-carboxamide] | 114 | xxx (xxx > 100) | xxx (xxx > 100) |
| COCCNC(=O)c1ccc2nn(C[C@@H]3CCN(C(=O)c4ccc(S(F)(F)(F)(F)F)cc4)C3)cc2c1C [Example 219, N-(2-methoxyethyl)-4-methyl-2-({(3R)-1-[4-(pentafluoro-λ^6-sulphanyl)benzoyl]-pyrrolidin-3-yl}methyl)-2H-indazol-5-carboxamide] | 273 | xx (xx: 10-100) | xx (xx: 10-100) |
| Cc1c(C(=O)NCCSC(F)(F)F)ccc2nn(C[C@@H]3CCN(C(=O)c4ccc(Cl)cc4)C3)cc12 [Example 220, 2-{[(R)-1-(4-chlorobenzoyl)pyrrolidin-3-yl]methyl}-4-methyl-N-{2-[(trifluoromethyl)sulphanyl]ethyl}-2H-indazol-5-carboxamide] | 147 | xxx (xxx > 100) | xxx (xxx > 100) |
| Cc1c(C(=O)NCCSC(F)(F)F)ccc2nn(C[C@@H]3CCN(C(=O)c4ccc(OC(F)(F)F)cc4)C3)cc12 [Example 221, 4-methyl-2-({(R)-1-[4-(trifluoromethoxy)benzoyl]pyrrolidin-3-yl}methyl)-N-{2-[(trifluoromethyl)sulphanyl]ethyl}-2H-indazol-5-carboxamide] | 235 | xx (xx: 10-100) | xx (xx: 10-100) |

Continued, values first:

| IC50 [1] [nM] | Selectivity hEP2/hDP (human PGD receptor) | Selectivity hEP2/hEP4 [2] | SMILES |
| --- | --- | --- | --- |
| 5.06 | xxx (xxx > 100) | xxx (xxx > 100) | COCCNC(=O)c1cc2cn(CC3CN(C(=O)c4ccc(Oc5ccc(C(F)(F)F)cc5)cc4)C3)nc2cc1C [Example 202, N-(2-methoxyethyl)-6-methyl-2-[(1-{4-[4-(trifluoromethyl)phenoxy]benzoyl}-azetidin-3-yl)methyl]-2H-indazol-5-carboxamide] |
| 43.3 | xxx (xxx > 100) | xxx (xxx > 100) | COCCNC(=O)c1cc2cn(CC3CCN(C(=O)c4ccc(Cl)cc4)CC3)nc2cc1C [Example 205, 2-{[1-(4-chlorobenzoyl)piperidin-4-yl]methyl}-N-(2-methoxyethyl)-6-methyl-2H-indazol-5-carboxamide] |
| 41.3 | xxx (xxx > 100) | xxx (xxx > 100) | COCCNC(=O)c1cc2cn(CC3CCN(C(=O)c4ccc(C(F)(F)F)cc4F)CC3)nc2cc1C [Example 206, 2-({1-[2-fluoro-4-(trifluoromethyl)benzoyl]piperidin-4-yl}methyl)-N-(2-methoxy-ethyl)-6-methyl-2H-indazol-5-carboxamide] |
| 30.3 | xxx (xxx > 100) | xxx (xxx > 100) | COCCNC(=O)c1cc2cn(CC3CCN(C(=O)c4ccc(Cl)cc4F)CC3)nc2cc1C [Example 207, 2-{[1-(4-chloro-2-fluorobenzoyl)piperidin-4-yl]methyl}-N-(2-methoxyethyl)-6-methyl-2H-indazol-5-carboxamide] |
| 80.6 | xxx (xxx > 100) | xxx (xxx > 100) | COCCNC(=O)c1cc2cn(CC3CCN(C(=O)c4ccc(C(F)(F)F)c(F)c4)CC3)nc2cc1C [Example 208, 2-({1-[3-fluoro-4-(trifluoromethyl)benzoyl]piperidin-4-yl}methyl)-N-(2-methoxyethyl)-6-methyl-2H-indazol-5-carboxamide] |
| 25.1 | xxx (xxx > 100) | xxx (xxx > 100) | COCCNC(=O)c1cc2cn(CC3CCN(C(=O)c4ccc(Cl)c(C(F)(F)F)c4)CC3)nc2cc1C [Example 209, 2-({1-[4-chloro-3-(trifluoromethyl)benzoyl]piperidin-4-yl}methyl)-N-(2-methoxyethyl)-6-methyl-2H-indazol-5-carboxamide] |
| 19.5 | xxx (xxx > 100) | xxx (xxx > 100) | COCCNC(=O)c1cc2cn(CC3CCN(C(=O)c4ccc(S(F)(F)(F)(F)F)cc4)CC3)nc2cc1C [Example 210, N-(2-methoxyethyl)-6-methyl-2-({1-[4-(pentafluoro-λ^6-sulphanyl)benzoyl]-piperidin-4-yl}methyl)-2H-indazol-5-carboxamide] |
| 50.1 | xxx (xxx > 100) | xxx (xxx > 100) | COCCNC(=O)c1cc2cn(CC3CCN(C(=O)c4ccc(C(F)(F)F)cc4)CC3)nc2cc1C [Example 211, N-(2-methoxyethyl)-6-methyl-2-({1-[4-(trifluoromethyl)benzoyl]piperidin-4-yl}-methyl)-2H-indazol-5-carboxamide] |
| 106 | xxx (xxx > 100) | xxx (xxx > 100) | CCc1c(C(=O)NCCOC)ccc2nn(CC3CCN(C(=O)c4ccc(Cl)cc4)CC3)cc12 [Example 212, 2-{[1-(4-chlorobenzoyl)piperidin-4-yl]methyl}-4-ethyl-N-(2-methoxyethyl)-2H-indazol-5-carboxamide] |
| 82.4 | xxx (xxx > 100) | xxx (xxx > 100) | CCc1c(C(=O)NCCOC)ccc2nn(CC3CCN(C(=O)c4ccc(OC(F)(F)F)cc4)CC3)cc12 [Example 213, 4-Ethyl-N-(2-methoxyethyl)-2-({1-[4-(trifluoromethoxy)benzoyl]piperidin-4-yl}methyl)-2H-indazol-5-carboxamide] |
| 128 | xxx (xxx > 100) | xxx (xxx > 100) | COCCNC(=O)c1ccc2nn(C[C@@H]3CCN(C(=O)c4ccc(OC(F)(F)F)cc4)C3)cc2c1C [Example 218, N-(2-methoxyethyl)-4-methyl-2-({(R)-1-[4-(trifluoromethoxy)benzoyl]-pyrrolidin-3-yl}methyl)-2H-indazol-5-carboxamide] |

Source: US9062041B2 (Bayer Intellectual Property GmbH, priority 2011, dated 2015)
